Source: US6958156B2, “Isoflavone derivatives” (Vyrex Corporation, priority 2000, dated 2005)

Assays:
[1] = system: alkaline phosphatase type VII-S; assay: Hydrolysis by alkaline phosphatase type VII-S; type: biochemical, bovine; conditions: 37° C., 0.5 DEA units in 1.0 ml 0.1M glycine buffer pH 10.4, initial substrate 1.07 mM
Protocol: (§1) In each of these experiments, free genistein was extracted with a 1:1 mixture of ethyl acetate and hexane, then analyzed by HPLC under the conditions described in example 5.
d) In alkaline phosphatase type VII-S at 37° C., the initial rate of hydrolysis to free genistein was 0.08% per minute.
This enzyme from bovine intestinal mucosa (Sigma cat no. P5521). 0.5 DEA units were dissolved in 1.0 ml of 0.1M glycine buffer pH 10.4, and the initial substrate concentration was 1.07 mM.

[2] = Hydrolysis of genistein-7-phosphate to free genistein in rat blood; type: in vitro ADME; conditions: 37° C.
Protocol: as §1
c) In rat blood (Sierra Biologicals) at 37° C., the half-life for hydrolysis to free genistein was about 30 minutes.

[3] = Hydrolysis of genistein-7-phosphate to free genistein in human serum; type: in vitro ADME; conditions: 37° C.
Protocol: as §1
a) In human serum (Sierra Biologicals) at 37° C., the half-life for hydrolysis to free genistein was about 5 hours.

[4] = Non-enzymatic hydrolysis of genistein esters in aqueous buffer (HPLC); type: physicochemical; conditions: phosphate-buffered saline (0.1 M), pH 7.4, 37°, 10 days
Excerpt: By way of example, and not of limitation, several embodiments of the inventive subject matter have been prepared and characterized. These examples all fall within the group of pro-compounds where at least one of R7, R6, R5 and R4′ is H2PO4—, and HOOC—(CH2)x-COO— where x=2, 3, or 4. These new phosphate esters and hemiesters are all water soluble and readily hydrolyzed. They are also stable. In aqueous solutions of the exemplified compounds, for example, hydrolysis occurs to the extent of less than 1% per day, when stored at pH 7.4 and 37° C. Dry formulations of the same compounds appear to be indefinitely stable.
HPLC analysis was conducted using a Partisil ODS-3 column (9.5×250 mm), with methanol as the mobile phase, and UV detection at 260 nm.
A solution of genistein-7-phosphate (2.5 mg) in 5 ml of phosphate-buffered saline (0.1 M) at pH 7.4 was incubated at 37° for 10 days.
A solution of genistein-7-hemisuccinate (2.5 mg) in 5 ml of phosphate-buffered saline (0.1 M) at pH 7.4 was incubated at 37° for 10 days.

[5] = Hydrolysis of genistein-7-phosphate to free genistein in human blood; type: in vitro ADME; conditions: 37° C.
Protocol: as §1
b) In human blood (Sierra Biologicals) at 37° C., the half-life for hydrolysis to free genistein was about 6 hours.

[6] = biological target: alkaline phosphatase type XXIV (Homo sapiens, UniProt P05187); assay: Hydrolysis by alkaline phosphatase type XXIV; type: biochemical; conditions: 37° C.
Protocol: as §1
e) In alkaline phosphatase type XXIV at 37° C., the initial rate of hydrolysis to free genistein was 0.05% per minute.

[7] = Merck Index descriptions; cited from earlier work

alkaline phosphatase type XXIV, sequence (P05187 23-506): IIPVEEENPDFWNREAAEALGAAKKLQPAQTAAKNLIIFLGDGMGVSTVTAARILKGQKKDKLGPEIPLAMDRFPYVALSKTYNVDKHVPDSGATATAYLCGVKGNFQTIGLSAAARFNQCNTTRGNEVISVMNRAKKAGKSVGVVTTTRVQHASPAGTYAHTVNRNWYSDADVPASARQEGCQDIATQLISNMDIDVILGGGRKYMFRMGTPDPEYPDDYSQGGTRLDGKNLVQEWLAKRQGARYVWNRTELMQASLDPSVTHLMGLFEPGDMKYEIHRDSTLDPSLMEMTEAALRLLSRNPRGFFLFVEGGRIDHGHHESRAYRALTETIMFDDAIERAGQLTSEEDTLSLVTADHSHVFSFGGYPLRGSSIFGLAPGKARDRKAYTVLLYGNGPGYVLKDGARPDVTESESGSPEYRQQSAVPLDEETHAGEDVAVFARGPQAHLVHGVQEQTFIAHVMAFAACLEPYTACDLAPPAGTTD

Structure (SMILES): O=c1c(-c2ccc(O)cc2)coc2cc(OP(=O)(O)O)cc(O)c12 [genistein-7-phosphate, Genistein-7-Phosphate]
- initial rate of hydrolysis to free genistein [1]: 0.08 % per minute
- half-life [2]: ~0.5 h
- half-life [3]: ~5 h
- free genistein found by HPLC after incubation [4]: absence of free genistein
- half-life [5]: ~6 h
- initial rate of hydrolysis to free genistein [6]: 0.05 % per minute

Structure (SMILES): O=c1c(-c2ccc(O)cc2)coc2cc(O)cc(O)c12 [genistein]
- solubility in water [7]: very insoluble

Structure (SMILES): O=C(O)CCC(=O)Oc1cc(O)c2c(=O)c(-c3ccc(O)cc3)coc2c1 [genistein-7-hemisuccinate, Genistein-7-Hemisuccinate]
- conversion of the ester to free genistein [4]: about 4%
